The values that follow come from patent publication US6855730B2, “3-methylidenyl-2-indolinone modulators of protein kinase” (Sugen, Inc., priority 1998, dated 2005).

The target of one assay is T1, human flk-1 (Homo sapiens, UniProt P35968).
T1 construct: host or cells: Flk-1/NIH cells (NIH fibroblasts)
In words: Biochemical FLK-1 assay (flk-1 autophosphorylation ELISA). As to conditions: read-out: bio FLK1 IC50 (μM) % if inhibition at 100. As for the experimental part: This assay evaluates flk-1 autophosphorylation activity in vitro using ELISA.
Materials And Reagents • 1. 15 cm tissue culture dishes • 2. Flk-1/NIH cells: NIH fibroblast line over-expressing human flk-1clone 3 (SUGEN, Inc., obtained from MPI, Martinsried, Germany). • 3. Growth medium: DMEM plus heat inactivated 10% FBS and 2 mM Glutamine (Gibco-BRL). • 4. Starvation medium: DMEM plus 0.5% heat-inactivated FBS, 2 mM Glutamine (Gibco-BRL). • 5. […] L4 or E38 monoclonal antibody specific for flk-1, Purified by Protein-A agarose affinity chromatography (SUGEN, Inc.). • 7. PBS (Dulbecco's Phosphate-Buffered Saline) Gibco Cat. No. 450-1300EB). • 8. HNTG (see BIOCHEMICAL FGFR for preparation). • 9. Pierce BCA protein determination kit. • 10. Blocking buffer • 11. TBST (pH 7.0) • 12. Kinase Buffer • 13. Kinase Stop Solution: 200 mM EDTA. • 14. […] AB kit (Vector Laboratories Cat. No. PK 4000). • 16. DMSO • 17. NUNC 96-well V bottom polypropylene plates (Applied Scientific Cat. No. AS-72092). • 18. Turbo-TMB (Pierce). • 19. Turbo-TMB stop solution: 1 M H2SO4. • 20. ATP (Sigma Cat. No. A-7699). • 21. 20% DMSO in TBS (pH 7.0). Procedure
Cell Growth and Lysate Preparation. • 1. Seed cell into growth medium and grow for 2-3 days to 90-100% confluency at 37° C. and 5% CO2.
2. Remove the medium and wash the cells twice with PBS. Lyse with HNTG lysis buffer. Collect all lysates and vortex mix them for 20-30 seconds. • 3. Remove insoluble material by centrifugation (5-10 min at about 10,000 ×g). • 4. Determine the protein concentration using BCA kit. • 5. Partition lysate into 1 mg aliquots, store at −80° C.
Assay Procedure • 1. Coat Corning 96-well ELISA plates with 2 μg/well purified L4 (or E 38) in 100 μl of PBS. Store overnight at […] • 2. Remove unbound proteins from wells by inverting the plate to remove the liquid. Wash one time with dH2O, pat plate on paper towel to remove excess liquid. • 3. Block plates with 150 μl blocking buffer per well. Incubate for 45-60 minutes with shaking at 4° C. • 4. Remove the blocking buffer and wash the ELISA plate three times with dH2O and one time with TBST. Pat plate on paper towel to remove excess liquid. • 5. Dilute lysate in PBS to give final concentration of 50 μg/100 μl. Add 100 μl of diluted lysate to each well. Incubate with shaking at 4° C. overnight. • 6. Remove unbound proteins from wells by inverting the plate. Wash as in step 4. • 7. Add 80 μl of kinase buffer to wells (90 μl to negative control wells). • 8. Dilute test compounds (normally 10-fold) into wells of a polypropylene plate containing 20% DMSO in TBS. • 9. Add 10 μl of the diluted compounds to the ELISA wells containing immobilized flk-1 and shake. Control wells receive no compounds. • 10. From stock 1 mM ATP, prepare 0.3 mM ATP solution in dH2O (alternatively, kinase buffer may be used). • 11. Add 10 μl of 0.3 mM ATP to all wells except the negative controls. Incubate for 60 min. at room temperature with shaking. • 12. After 1 hr stop the kinase reaction by adding 11 μl 200 mM EDTA. Shake for 1-2 min. • 13. Wash the ELISA plate 4 times with dH2O and twice with TBST. • 14. Add 100 μl of 1:5000 biotinylated 4G10:TBST to all wells. Incubate 45 min with shaking at room temperature. • 15. While the above is incubating, add 50 μl of solutions A & B from the ABC kit to 10 ml of TBST. These solutions must be combined approximately 30 min prior to use. • 16. Wash plates as in step 4. • 17. Add 100 μl of the preformed A & B complex to all wells. Incubate 30 min with shaking at room temperature. • 18. Wash plates as in step 4. • 19. Add 100 μl turbo-TMB. Shake at room temperature for 10-15 min. • 20. When the color in the positive control wells reaches an absorbance of about 0.35-0.4, stop the reaction with 100 μl of turbo-TMB stop solution. • 21. Read plates on Dynatech MR7000 ELISA reader, test filter: 450 nM, reference filter: 410 nM.

The next assay addresses T2, flkGST (Homo sapiens, UniProt P35968).
T2 construct: GST
The experiment in a line: bio flkGST assay. The format is biochemical.

The target in a further assay is pyk2 (Homo sapiens, UniProt Q14289). The experiment in a line: bio pyk2 assay. The format is biochemical.
The target in a further assay is T3, src protein kinase (Gallus gallus, UniProt P00523).
T3 construct: host or cells: Schizosaccharomyces pombe SP200
In words: Biochemical SRC assay (phosphorylation of biotinylated peptide). As to conditions: read-out: bio src IC50.

The structures appear in SMILES notation. pIC50: −log10 of the molar value. Some results are limits rather than exact numbers.

pyk2, sequence (Q14289 whole entry, species assumed): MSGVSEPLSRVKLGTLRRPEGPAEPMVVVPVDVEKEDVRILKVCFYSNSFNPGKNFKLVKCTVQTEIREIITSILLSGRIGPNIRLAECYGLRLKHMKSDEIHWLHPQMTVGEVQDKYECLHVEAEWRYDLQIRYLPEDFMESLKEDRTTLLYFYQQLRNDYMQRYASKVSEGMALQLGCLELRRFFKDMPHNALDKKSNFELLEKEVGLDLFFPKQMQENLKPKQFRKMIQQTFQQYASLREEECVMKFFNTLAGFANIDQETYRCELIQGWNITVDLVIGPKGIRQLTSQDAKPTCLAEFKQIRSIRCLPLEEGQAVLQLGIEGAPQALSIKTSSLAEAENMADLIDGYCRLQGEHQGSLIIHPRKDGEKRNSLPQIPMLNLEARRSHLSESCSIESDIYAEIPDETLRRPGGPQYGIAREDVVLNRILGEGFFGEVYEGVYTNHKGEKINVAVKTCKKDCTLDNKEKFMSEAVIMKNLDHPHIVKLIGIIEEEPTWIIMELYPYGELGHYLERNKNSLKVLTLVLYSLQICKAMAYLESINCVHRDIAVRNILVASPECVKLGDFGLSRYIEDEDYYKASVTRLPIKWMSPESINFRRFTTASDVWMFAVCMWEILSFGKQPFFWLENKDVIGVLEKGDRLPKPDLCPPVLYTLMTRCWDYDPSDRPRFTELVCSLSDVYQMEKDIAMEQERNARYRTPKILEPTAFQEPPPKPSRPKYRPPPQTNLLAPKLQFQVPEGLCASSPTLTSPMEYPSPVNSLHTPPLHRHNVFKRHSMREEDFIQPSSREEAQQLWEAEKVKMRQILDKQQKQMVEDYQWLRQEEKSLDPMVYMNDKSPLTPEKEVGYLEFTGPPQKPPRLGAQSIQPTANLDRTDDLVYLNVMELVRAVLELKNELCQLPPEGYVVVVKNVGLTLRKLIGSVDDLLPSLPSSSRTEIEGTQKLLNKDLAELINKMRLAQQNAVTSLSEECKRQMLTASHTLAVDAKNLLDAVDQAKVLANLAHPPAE
T1 sequence (P35968 20-1356): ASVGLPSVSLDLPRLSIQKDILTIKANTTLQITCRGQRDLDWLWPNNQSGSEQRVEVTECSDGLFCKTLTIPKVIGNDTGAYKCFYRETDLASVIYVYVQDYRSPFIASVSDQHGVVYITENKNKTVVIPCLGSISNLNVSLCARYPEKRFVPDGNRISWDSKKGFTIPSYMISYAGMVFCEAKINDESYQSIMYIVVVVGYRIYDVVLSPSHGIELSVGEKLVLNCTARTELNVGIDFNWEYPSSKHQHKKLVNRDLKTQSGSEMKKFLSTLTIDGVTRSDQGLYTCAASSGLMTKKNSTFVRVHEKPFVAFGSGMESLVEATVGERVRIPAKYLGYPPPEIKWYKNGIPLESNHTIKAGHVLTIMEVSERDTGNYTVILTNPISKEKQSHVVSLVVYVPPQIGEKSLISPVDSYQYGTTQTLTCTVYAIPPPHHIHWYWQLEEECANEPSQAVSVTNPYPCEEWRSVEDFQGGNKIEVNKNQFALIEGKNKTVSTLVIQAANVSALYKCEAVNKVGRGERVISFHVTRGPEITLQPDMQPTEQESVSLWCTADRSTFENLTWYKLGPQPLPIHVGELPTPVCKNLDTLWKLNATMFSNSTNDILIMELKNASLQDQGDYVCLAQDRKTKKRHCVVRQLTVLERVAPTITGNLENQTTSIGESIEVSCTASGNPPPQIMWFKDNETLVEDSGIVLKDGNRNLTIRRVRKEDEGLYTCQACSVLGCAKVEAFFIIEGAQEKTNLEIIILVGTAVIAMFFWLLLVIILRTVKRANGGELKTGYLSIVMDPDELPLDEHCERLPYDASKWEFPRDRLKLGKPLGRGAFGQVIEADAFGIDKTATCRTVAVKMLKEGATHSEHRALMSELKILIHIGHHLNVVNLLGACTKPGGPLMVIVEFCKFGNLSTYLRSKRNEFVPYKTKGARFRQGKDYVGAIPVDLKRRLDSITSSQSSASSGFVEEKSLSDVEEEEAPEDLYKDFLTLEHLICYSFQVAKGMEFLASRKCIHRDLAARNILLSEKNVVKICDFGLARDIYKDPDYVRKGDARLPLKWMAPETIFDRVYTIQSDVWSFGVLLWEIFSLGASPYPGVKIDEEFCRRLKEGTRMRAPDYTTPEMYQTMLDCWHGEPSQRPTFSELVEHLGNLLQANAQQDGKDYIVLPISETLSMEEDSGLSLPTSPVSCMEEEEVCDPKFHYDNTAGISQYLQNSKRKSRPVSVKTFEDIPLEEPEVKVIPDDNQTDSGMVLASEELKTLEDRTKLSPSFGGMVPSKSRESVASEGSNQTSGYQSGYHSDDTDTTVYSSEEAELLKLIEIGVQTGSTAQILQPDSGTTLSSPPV
T2 sequence (P35968 786-1356 limits assumed): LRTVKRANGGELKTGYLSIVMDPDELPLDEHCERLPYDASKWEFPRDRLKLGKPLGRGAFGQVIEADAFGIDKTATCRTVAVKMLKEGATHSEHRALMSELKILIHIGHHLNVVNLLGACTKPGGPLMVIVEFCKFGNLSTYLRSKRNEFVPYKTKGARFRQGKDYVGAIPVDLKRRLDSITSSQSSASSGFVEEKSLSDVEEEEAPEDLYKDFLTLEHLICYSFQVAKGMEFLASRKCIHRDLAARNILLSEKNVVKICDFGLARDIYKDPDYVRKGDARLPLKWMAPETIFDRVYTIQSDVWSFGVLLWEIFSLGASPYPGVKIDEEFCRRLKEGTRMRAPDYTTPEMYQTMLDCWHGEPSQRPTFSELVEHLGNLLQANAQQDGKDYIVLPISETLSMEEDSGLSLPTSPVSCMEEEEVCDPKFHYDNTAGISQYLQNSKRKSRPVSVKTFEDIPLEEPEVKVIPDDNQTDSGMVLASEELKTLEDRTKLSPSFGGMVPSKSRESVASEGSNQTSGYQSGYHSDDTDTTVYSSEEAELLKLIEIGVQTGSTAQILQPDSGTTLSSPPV

The term IC50 denotes the concentration that gives 50% inhibition. Regarding `O=C1Nc2ccc(N=Cc3cc4ccccc4[nH]3)cc2C1=Cc1cc2ccccc2[nH]1` [Example 171, 3-(1H-indol-2-ylmethylene)-5-[(1H-indol-2-ylmethylene)-amino]-1,3-dihydroindol-2-one], the 50% inhibitory concentration (IC50) at human flk-1 was found to be 20.4 µM.

`O=C(O)CCc1c(/C=C2\C(=O)Nc3ncccc32)[nH]c2c1CCCC2` [Example 203, 3-[2-(2-Oxo-1,2-dihydropyrrolo[2,3-b]pyridin-3-ylidenemethyl)-4,5,6,7-tetrahydro-1H-indol-3-yl]-propionic acid]: at human flk-1, the IC50 amounted to 0.14 µM.

As usually defined, the pIC50 is −log10 of the IC50, conventionally taken in molar units. On to `Cc1c(/C=C2\C(=O)Nc3ccc(N)cc32)[nH]c2ccccc12` [Example 180, 5-Amino-3-(3-methyl-1H-indol-2-ylmethylene)-1,3-dihydroindol-2-one], for which the figures for the negative logarithm of the IC50 (pIC50) at flkGST and at pyk2 were 5.95 and greater than 6.11, respectively.

For `COc1cccc(-c2ccc3c(c2)NC(=O)/C3=C\c2[nH]cc(C)c2CCC(=O)O)c1` [Example 223, 3-{2-[6-(3-Methoxyphenyl)-2-oxo-1,2-dihydro-indol-3-ylidenemethyl]-4-methyl-1H-pyrrol-3-yl}-propionic acid], the negative logarithm of the IC50 (pIC50) was 5.97 at src protein kinase and 6.24 against flkGST. Further, the 50% inhibitory concentration (IC50) on human flk-1 is 28.2 µM.

Take `COc1cccc(-c2ccc3c(c2)NC(=O)/C3=C\c2[nH]c3c(c2CCC(=O)O)CCCC3)c1` [Example 204, 3-{2-[6-(3-Methoxyphenyl)-2-oxo-1,2-dihydro-indol-3-ylidenemethyl]-4,5,6,7-tetrahydro-1H-indol-3-yl}-propionic acid]: the pIC50 at src protein kinase was 5.35; against flkGST, 7.15. Further, the IC50 at human flk-1 was 0.36 µM.

With `CNS(=O)(=O)c1ccc2c(c1)/C(=C/c1cc3ccccc3[nH]1)C(=O)N2` [Example 173, 3-(1H-Indol-2-ylmethylene)-2-oxo-2,3-dihydro-1H-indole-5-sulfonic acid methylamide], the negative logarithm of the IC50 (pIC50) against flkGST is 4.96; on pyk2, 5.01.

For `O=C1Nc2ccc(C(=O)O)cc2/C1=C/c1ccc2[nH]ccc2c1` [Example 177, 3-(1H-Indol-5-ylmethylene)-2-oxo-2,3-dihydro-1H-indole-5-carboxylic acid], the pIC50 at flkGST was 5.87; on pyk2 it was less than 4.00.

Turning to `CCOc1cccc(-c2ccc3c(c2)NC(=O)/C3=C\c2[nH]cc(C)c2CCC(=O)O)c1` [Example 224, 3-{2-[6-(3-Ethoxyphenyl)-2-oxo-1,2-dihydro-indol-3-ylidenemethyl]-4-methyl-1H-pyrrol-3-yl}-propionic acid], the pIC50 at src protein kinase is 5.94; against flkGST, 6.17. Moreover, the 50% inhibitory concentration (IC50) on human flk-1 turned out to be 1 µM.

Regarding `NS(=O)(=O)c1ccc2c(c1)/C(=C/c1c[nH]c3ccccc13)C(=O)N2` [Example 172, 3-(1H-Indol-3-ylmethylene)-2-oxo-2,3-dihydro-1H-indole-5-sulfonic acid amide], the results for the negative-log IC50 (pIC50) at flkGST and against pyk2 were 4.98 and 4.83, respectively.

With `COc1c(C(C)C)cc(/C=C2/C(=O)Nc3ccc(Cl)cc32)cc1C(C)C` [Example 2, 5-Chloro-3-(3,5-diisopropyl-4-methoxybenzylidene)-1,3-dihydroindol-2-one], the IC50 on human flk-1 was greater than 50 µM.

As to `O=C1Nc2ccc(C(=O)O)cc2/C1=C/c1c[nH]c2ccccc12` [Example 174, 3-(1H-Indol-3-ylmethylene)-2-oxo-2,3-dihydro-1H-indole-5-carboxylic acid], the pIC50 against flkGST is 5.73; against pyk2 it was 5.59.

With `COc1ccc(-c2ccc3c(c2)NC(=O)/C3=C\c2[nH]c3c(c2CCC(=O)O)CCCC3)cc1` [Example 205, 3-{2-[6-(4-Methoxyphenyl)-2-oxo-1,2-dihydro-indol-3-ylidenemethyl]-4,5,6,7-tetrahydro-1H-indol-3-yl}-propionic acid], the negative logarithm of the IC50 (pIC50) is 5.87 on src protein kinase and 6.36 at flkGST. The IC50 on human flk-1 worked out at 0.52 µM.

As to `CC(C)NS(=O)(=O)c1ccc2c(c1)C(=Cc1[nH]c3c(c1CCC(=O)O)CCCC3)C(=O)N2` [Example 208, 3-[2-(5-Isopropylaminosulfonyl-2-oxo-1,2-dihydroindol-3-ylidenemethyl)-4,5,6,7-tetrahydro-1H-indol-3-yl]-propionic acid], the negative logarithm of the IC50 (pIC50) is 5.74 on src protein kinase, 6.42 against flkGST and 6.89 against pyk2. On human flk-1, the half-inhibitory concentration (IC50) was less than 0.78 µM.

Consider `O=C(O)CCc1c(/C=C2\C(=O)Nc3cc(-c4ccccc4)ccc32)[nH]c2c1CCCC2` [Example 206, 3-[2-(2-oxo-6-phenyl-1,2-dihydroindol-3-ylidenemethyl)-4,5,6,7-tetrahydro-1H-indol-3-yl]-propionic acid], for which the pIC50 at src protein kinase was 6.13; at flkGST, 7.22. For the same molecule, the IC50 at human flk-1 was 6.08 µM.

`Cc1cc(CCC(=O)O)c(/C=C2\C(=O)Nc3ccc(Br)cc32)[nH]1` [Compound 116, 3-[2-(5-Bromo-2-oxo-1,2-dihydroindol-3-ylidenemethyl)-5-methyl-1H-pyrrol-3-yl]-propionic acid] showed a negative logarithm of the IC50 (pIC50) on flkGST of 7.00.

As for `Cc1[nH]c2ccccc2c1/C=C1\C(=O)Nc2ccc(C(=O)O)cc21` [Example 182, 3-(2-Methyl-1H-indol-3-ylmethylene)-2-oxo-2,3-dihydro-1H-indole-5-carboxylic acid], the negative logarithm of the IC50 (pIC50) is 4.73 at flkGST and 4.43 at pyk2.

Take `O=C(O)CCc1ccccc1/C=C1/C(=O)Nc2ccccc21` [Example 214, 3-[2-(2-Oxo-1,2-dihydroindol-3-ylidenemethyl)-phenyl]-propionic acid]: the negative logarithm of the IC50 (pIC50) on src protein kinase was less than 4.00. Moreover, the IC50 on human flk-1 came to 50.6 µM.

`Nc1ccc2c(c1)/C(=C/c1ccc3[nH]ccc3c1)C(=O)N2` [Example 179, 5-Amino-3-(1H-indol-5-ylmethylene)-1,3-dihydro-indol-2-one]: the pIC50 at flkGST was 5.74; against pyk2, less than 4.00.

Molecule `CCOC(=O)c1c(C)[nH]c(/C=C2\C(=O)Nc3ccc(Br)cc32)c1CCC(=O)O` [Compound 114, 5-(5-Bromo-2-oxo-1,2-dihydroindol-3-ylidenemethyl)-4-(2-carboxyethyl)-2-methyl-1H-pyrrole-3-carboxylic acid ethyl ester] had a negative logarithm of the IC50 (pIC50) at flkGST of 5.48.

On to `Cc1[nH]c2ccccc2c1/C=C1\C(=O)Nc2ccc(N)cc21` [Example 187, 5-Amino-3-(2-methyl-1H-indol-3-ylmethylene)-1,3-dihydroindol-2-one], for which the results for the negative logarithm of the IC50 (pIC50) against flkGST and against pyk2 were less than 4.70 and 4.12, respectively.

With `COc1c(C(C)C)cc(/C=C2/C(=O)Nc3ccccc32)cc1C(C)C` [Example 1, 3-(3,5-Diisopropyl-4-methoxybenzylidene)-1,3-dihydroindol-2-one], the IC50 on human flk-1 is greater than 50 µM.
